In patent publication US4791118A, “Quinolonecarboxylic acid derivatives and their preparation” (Kyorin Pharmaceutical Co., Ltd., priority 1985, dated 1988):

Columns and labels:
[1] = test system: Streptococcus pyogenes (S-8); assay: MIC, aerobic bacteria; format: cell-based; details: Gram +, 10^6 cells/ml
P. aeruginosa IID 1210 = assay: MIC, aerobic bacteria; format: cell-based; details: Pseudomonas aeruginosa, IID1210, Gram -, 10^6 cells/ml
B. fragilis 0558 = assay: MIC, anaerobic bacteria; format: cell-based; details: Bacteroides fragilis, Gram -, 10^6 cells/ml
Source text: (§1) | Organism (10^6 cells/ml)

B. fragilis 25285 = assay: MIC, anaerobic bacteria; format: cell-based; details: Bacteroides fragilis, Gram -, 10^6 cells/ml
Source text: as §1

Pst. micros UPI 5464-1 = assay: MIC, anaerobic bacteria; format: cell-based; details: Parvimonas micra, UPI54641, Gram +, 10^6 cells/ml
Source text: as §1

F. nucleatum = assay: MIC, anaerobic bacteria; format: cell-based; details: Fusobacterium nucleatum, Gram -, 10^6 cells/ml
Source text: as §1

[2] = test system: Clostridium difficile I-E; assay: MIC, anaerobic bacteria; format: cell-based; details: Clostridioides difficile, Gram +, 10^6 cells/ml
Source text: as §1

[3] = test system: Bacteroides fragilis GM 7000; assay: MIC, anaerobic bacteria; format: cell-based; details: GM7000, Gram -, 10^6 cells/ml
Source text: as §1

B. vulgatus KYA 29327 = assay: MIC, anaerobic bacteria; format: cell-based; details: Phocaeicola vulgatus, KYA29327, Gram -, 10^6 cells/ml
Source text: as §1

[4] = test system: Veillonella parvula KYA 10790; assay: MIC, anaerobic bacteria; format: cell-based; details: KYA10790, Gram -, 10^6 cells/ml
Source text: as §1

[5] = test system: Peptococcus magnus KY 017; assay: MIC, anaerobic bacteria; format: cell-based; details: Finegoldia magna, KY017, Gram +, 10^6 cells/ml
Source text: as §1

B. distasonis 8503 = assay: MIC, anaerobic bacteria; format: cell-based; details: Parabacteroides distasonis, Gram -, 10^6 cells/ml
Source text: as §1

[6] = test system: Fusobacterium mortiferum 4249; assay: MIC, anaerobic bacteria; format: cell-based; details: Gram -, 10^6 cells/ml
Source text: as §1

S. agalactiae 4049 = assay: MIC, clinical isolates; format: cell-based; details: Streptococcus agalactiae; clinical isolate S. agalactiae 4049; 10^6 cells/ml
E. faecalis IID 682 = assay: MIC, aerobic bacteria; format: cell-based; details: Enterococcus faecalis, IID682, Gram +, 10^6 cells/ml
[7] = test system: Yersinia enterocolitica IID 981; assay: microbe, parasite or virus in culture; details: IID981
F. varium KYA 8501 = assay: microbe, parasite or virus in culture; details: Fusobacterium varium, KYA8501
[8] = test system: Staphylococcus aureus 209 P; assay: microbe, parasite or virus in culture
[9] = test system: Enterobacter cloacae IID 977; assay: MIC, aerobic bacteria; details: IID977
C. perfringens KYA 13123 = assay: microbe, parasite or virus in culture; format: cell-based; details: Clostridium perfringens, KYA13123
[10] = test system: Pseudomonas aeruginosa V-1; assay: MIC, aerobic bacteria; details: V1
E. lentum GAI 5242 = assay: microbe, parasite or virus in culture; details: Eggerthella lenta, GAI5242
[11] = test system: Serratia marcescens IID 618; assay: MIC, aerobic bacteria; format: cell-based; details: IID618, Gram -, 10^6 cells/ml
Source text: as §1

[12] = test system: Citrobacter freundii IID 976; assay: MIC, aerobic bacteria; format: cell-based; details: IID976, Gram -, 10^6 cells/ml
Source text: as §1

S. epidermidis IID 866 = assay: MIC, aerobic bacteria; format: cell-based; details: Staphylococcus epidermidis, IID866, Gram +, 10^6 cells/ml
Source text: as §1

[13] = test system: Klebsiella pneumoniae KY(GN)6445; assay: MIC, aerobic bacteria; format: cell-based; details: Gram -, 10^6 cells/ml
Source text: as §1

E. coli ATCC 10536 = assay: MIC, aerobic bacteria; format: cell-based; details: Escherichia coli, ATCC10536, Gram -, 10^6 cells/ml
Source text: as §1

P. mirabilis IID 992 = assay: MIC, aerobic bacteria; format: cell-based; details: Proteus mirabilis, IID992, Gram -, 10^6 cells/ml
Source text: as §1

[14] = test system: Proteus vulgaris IFO 3167; assay: MIC, aerobic bacteria; format: cell-based; details: IFO3167, Gram -, 10^6 cells/ml
Source text: as §1

[15] = test system: Acinetobacter anitratus IID 876; assay: MIC, aerobic bacteria; format: cell-based; details: Acinetobacter calcoaceticus, IID876, Gram -, 10^6 cells/ml
Source text: as §1

[16] = test system: Escherichia coli NIHJ JC-2; assay: MIC, aerobic bacteria; format: cell-based; details: NIHJJC2, Gram -, 10^6 cells/ml
Source text: as §1

[17] = test system: S. aureus IID 670 (Terajima); assay: MIC, aerobic bacteria; format: cell-based; details: Staphylococcus aureus, IID670, Gram +, 10^6 cells/ml
Source text: as §1

[18] = test system: Morganella morganii IID 602; assay: MIC, aerobic bacteria; format: cell-based; details: IID602, Gram -, 10^6 cells/ml
Source text: as §1

E. faecalis 402 = assay: microbe, parasite or virus in culture; details: Enterococcus faecalis
S. pneumoniae 15 = assay: MIC, clinical isolates; format: cell-based; details: Streptococcus pneumoniae; clinical isolate S. pneumoniae 15; 10^6 cells/ml
[19] = test system: B. melaninogenicus GAI 0410; assay: MIC, anaerobic bacteria; details: Prevotella intermedia, GAI0410
S. pneumoniae IID 552 = assay: MIC, aerobic bacteria; format: cell-based; details: Streptococcus pneumoniae, IID552, Gram +, 10^6 cells/ml
S. agalactiae 4470 = assay: MIC, clinical isolates; format: cell-based; details: Streptococcus agalactiae; clinical isolate S. agalactiae 4470; 10^6 cells/ml

Measured: MIC

O=C(O)c1cn(C2CC2)c2c(Cl)c(N3CCC(CNCCF)C3)c(F)cc2c1=O (stereo not shown) [Exp. 1, 8-Chloro-1-cyclopropyl-6-fluoro-7-[3-(2-fluoroethyl)aminomethyl-1-pyrrolidinyl]-1,4-dihydro-4-oxo-3-quinolinecarboxylic acid]
≤ 0.0063 µg/mL: [8] | [17]
0.2 µg/mL: [2] | B. distasonis 8503
0.0125 µg/mL: S. epidermidis IID 866 | E. coli ATCC 10536 | [16]
0.025 µg/mL: [1] | S. agalactiae 4049 | P. mirabilis IID 992 | [14] | S. pneumoniae 15 | S. pneumoniae IID 552 | S. agalactiae 4470
0.39 µg/mL: F. varium KYA 8501 | [10]
≤ 0.05 µg/mL: B. fragilis 0558 | B. fragilis 25285 | F. nucleatum | [3] | B. vulgatus KYA 29327 | [5] | [6] | C. perfringens KYA 13123
1.56 µg/mL: P. aeruginosa IID 1210
0.05 µg/mL: E. faecalis IID 682 | [12] | [13] | [15]
0.1 µg/mL: all other assays above

O=C(O)c1cn(C2CC2)c2c(F)c(N3CCC(CNCCF)C3)c(F)cc2c1=O (stereo not shown) [Exp. 2, 1-Cyclopropyl-7-[3-(2-fluoroethyl)aminomethyl-1-pyrrolidinyl]-6,8-difluoro-1,4-dihydro-4-oxo-3-quinolinecarboxylic acid]
0.39 µg/mL: B. fragilis 0558 | B. fragilis 25285 | [3] | B. vulgatus KYA 29327 | [10] | E. lentum GAI 5242 | [19]
0.1 µg/mL: E. faecalis IID 682 | [7] | [9] | C. perfringens KYA 13123 | E. faecalis 402
0.2 µg/mL: Pst. micros UPI 5464-1 | F. nucleatum | [4] | [6] | [11] | [18]
≤ 0.05 µg/mL: [5]
0.78 µg/mL: [2] | B. distasonis 8503 | F. varium KYA 8501
0.0125 µg/mL: [8]
0.025 µg/mL: S. epidermidis IID 866 | E. coli ATCC 10536 | [16] | [17]
1.56 µg/mL: P. aeruginosa IID 1210
0.05 µg/mL: all other assays above
